# In patent US6432403B1, “Antibodies to polypeptides having prenylcysteine carboxyl methlytransferase activity or inhibiting activity” (New York University, priority 1997, dated 2002):
# Assays:
# human pcCMT = biological target: T1, human pcCMT (Homo sapiens, UniProt O60725); test: Carboxyl methylation of prenylcysteine analogs (AFC, AGGC) as defined substrates by the recombinant enzyme in COS-1 membranes; format: biochemical
# T1 construct: The 3.6-kb full-length HL60 pcCMT cDNA and an 852-bp cDNA fragment comprising the ORF were subcloned into the eukaryotic expression vectors; expressed in transfected cells; host or cells: COS-1 cells (pCDM8 vector, DEAE-dextran transfection); light membranes after nitrogen cavitation
# T1 sequence (O60725 whole entry, the tested form may be a part): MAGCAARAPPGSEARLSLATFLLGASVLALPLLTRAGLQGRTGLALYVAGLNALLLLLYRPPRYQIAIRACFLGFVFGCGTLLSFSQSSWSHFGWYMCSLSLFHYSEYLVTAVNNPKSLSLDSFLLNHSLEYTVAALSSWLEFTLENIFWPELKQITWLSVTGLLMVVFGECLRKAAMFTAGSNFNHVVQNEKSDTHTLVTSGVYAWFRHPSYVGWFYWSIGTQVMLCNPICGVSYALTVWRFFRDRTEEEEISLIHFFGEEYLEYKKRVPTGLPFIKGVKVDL
# Procedure: Prenylcysteine Carboxyl Methyltransferase Assays: COS-1 cells transfected with HL60 pcCMT or vector alone were harvested at 48 hours with 5 mM EDTA and subjected, in parallel with human neutrophils, to nitrogen cavitation and discontinuous sucrose density centrifugation as described (Philips et al, 1991). Light membranes were assayed for pcCMT activity qualitatively by S-adenosyl-L- [methyl-^3H]methionine labeling (SDS-polyacrylamide gel electrophoresis and flurography) of Rho GTPases partially purified from neutrophil cytosol and quantitatively by carboxyl methylation of N-acetyl-S-trans,trans-farnesyl-L-cysteine (AFC) (heptane partition, alkaline hydrolysis, and measurement of vapor phase [^3H]methanol) as described (Philips et al, 1995)
# To determine whether the HL60 STE14 protein homolog has prenylcysteine carboxyl methyltransferase activity, the cDNA was subcloned into a mammalian expression vector PCDM8 (Invitrogen, San Diego, Calif.) and transiently overexpressed ectopically in COS-1 cells. Membranes prepared from these cells were used as a source of recombinant enzyme. Farnesylated Ras GTPases require detergent for extraction from membranes. Therefore, geranylgeranylated neutrophil cytosolic Rho accessory protein, guanine nucleotide dissociation inhibitor (GDI), were utilized as endogenous substrates in an in vitro assay (FIGS. 5A and 5B). Untransfected COS-1 cell membranes had little pcCMT activity toward Rho proteins compared with that of membranes derived from human neutrophils (FIG. 5A). Transfection with the HL60 cDNA conferred pcCMT activity toward Rho GTPases on COS-1 membranes, and this activity was blocked by the competitive pcCMT inhibitor, AFC, with an ED50 (10 μM) identical to that for endogenous neutrophil pcCMT. Carboxyl methylation of Rac2 and RhoA by HL60 pcCMT-transfected COS-1 cell membranes was enhanced by guanosine 5′-3-O-(thio)triphosphate (GTPγS) (FIG. 5B), similar to the activity observed in neutrophil membranes (Philips et al, 1993). Carboxyl methyltransferase activity was quantitated in membranes of COS-1 cells transfected with HL60 pcCMT using prenylcysteine analogs as defined substrates (Philips et al, 1995). Untransfected COS-1 cell membranes had […] (n=5) of the pcCMT specific activity of neutrophil membranes toward AFC.
# The Michaelis constants of the recombinant enzyme, Km=7 μM for AFC and 0.6 μM for AGGC, were similar to those for the endogenous neutrophil enzyme (Pillinger et al, 1994). Thus, the cDNA described above encodes authentic human myeloid pcCMT.
# [1] = biological target: T2, endogenous neutrophil pcCMT (Homo sapiens, UniProt O60725); test: Carboxyl methylation of Rho GTPases by human neutrophil membranes; format: biochemical; conditions: stated identical to the recombinant enzyme; read-out: ED50 for endogenous neutrophil pcCMT
# T2 construct: endogenous in cells; host or cells: human peripheral blood neutrophils, light membranes (nitrogen cavitation, sucrose density centrifugation)
# T2 sequence (O60725 whole entry): as the sequence (O60725 whole entry, the tested form may be a part) above
# Procedure: FIGS. 5A and 5B show the carboxyl methylation of ras-related GTPases by COS-1 cell membranes expressing ectopic human pcCMT. In FIG. 5A, neutrophil cytosol (CS) containing a mixture of Rho family proteins complexed with Rho-GDI (lanes 2, 3, 6, 7, 10, 11) or RhoA-GDI complexes partially purified from CS (lanes 4, 8, 12) were incubated with the methyl donor S-adenosyl-L-[methyl-^3H]methionine and light membranes derived from nitrogen cavitation of human neutrophils (lanes 1-4) or COS-1 cells transiently transfected with either human pcCMT (lanes 5-8) or vector alone (lanes 9-12). In some reactions (lanes 3, 7, 11) a competitive pcCMT inhibitor, AFC, was included. Reaction products were analyzed by SDS-PAGE and fluorography. The position of carboxyl methylated […] is indicated as is the position of protein phosphatase 2a (PP2a) that is methylated on a C-terminal leucine by an enzyme unrelated to pcCMT (Lee et al, 1993). […] Carboxyl methyltransferase activity was quantitated in membranes of COS-1 cells transfected with HL60 pcCMT using prenylcysteine analogs as defined substrates (Philips et al, 1995). […]
structure (smiles),measurement,setting,value
"CC(=O)N[C@@H](CSC/C=C(\C)CC/C=C(\C)CCC=C(C)C)C(=O)O [AFC, N-acetyl-S-trans,trans-farnesyl-L-cysteine]",Increase in carboxyl methylation of the substrate on pcCMT transfection,human pcCMT; n=2,20 fold
same,Km,"human pcCMT; recombinant enzyme, read-out: Michaelis constant Km",7 µM
same,EC50,[1],10 µM
